Results: patent US5374623A, “Cysteine protease inhibitors effective for in vivo use” (Prototek, Inc., priority 1992, dated 1994)

Experiments:
bone resorption = experiment: In vivo bone resorption by urinary 14C-tetracycline excretion in rats
Experimental: Treatment of Osteo Arthritis with Mu-Phe-HPhe-O-Ph. The skeletons of young growing rats were radioactively labelled by injections with ^14 C-tetracycline over a 10 day period. The amount of bone resorption was then determined each day as the amount of radioactivity excreted in the urine. After 10 days of control excretion, test compounds were administered for three days subcutaneously and their effects on the daily excretion of tetracycline were determined. Tested compounds were dissolved in DMSO/PEG at a concentration of 25 mg/ml and were injected once per day subcutaneously in a volume of 2 ml/kg. Treatment of Osteo Arthritis with Mu-Leu-HPhe-O-Ph. The skeletons of young growing rats were radioactively labelled by injections with ^14 C-tetracycline over a 10 day period. The amount of bone resorption was then determined each day as the amount of radioactivity excreted in the urine. After 10 days of control excretion, test compounds were administered for three days subcutaneously and their effects on the daily excretion of tetracycline were determined. Tested compounds were dissolved in DMSO/PEG at a concentration of 25 mg/ml and were injected once per day subcutaneously in a volume of 2 ml/kg.

[1] = system: Soluble extracts of P. vinckei; experiment: Proteolytic activity of P. vinckei soluble extracts, substrate Z-Phe-Arg-AFC; assay type: biochemical; conditions: read-out: IC50, proteolytic activity of P. vinckei extract
Experimental: Treatment of Malaria with Mu-Phe-HPhe-O-Ph. Soluble extracts of P. falciparum and P. vinckei were prepared and proteolytic activity was assayed with fluorogenic peptide substrate Z-Phe-Arg-AFC. The activity of control samples was compared with activities in the presence of multiple concentrations of Mu-Phe-HPhe-O-Ph. The concentrations at which activity was inhibited by 50% (IC50) was calculated.
Treatment of Malaria with Mu-Leu-HPhe-O-Ph. Soluble extracts of P. falciparum and P. vinckei were prepared and proteolytic activity was assayed with fluorogenic peptide substrate Z-Phe-Arg-AFC. The activity of control samples was compared with activities in the presence of multiple concentrations of Mu-Leu-HPhe-O-Phe. The concentration at which activity was inhibited by 50%. (IC50) was calculated.
Treatment of Malaria with Mu-Phe-Arg(NO2)-O-Ph. Soluble extracts of P. falciparum and P. vinckei were prepared and proteolytic activity was assayed with fluorogenic peptide substrate Z-Phe-Arg-AFC. The activity of control samples was compared with activities in the presence of multiple concentrations of Mu-Phe-Arg(NO2)-O-Ph. The concentration at which activity was inhibited by 50% (IC50) was calculated.
Treatment of Malaria with Mu-Tyr(OCH3)2 -HPhe-O-Ph. Soluble extracts of P. falciparum and P. vinckei were prepared and proteolytic activity was assayed with fluorogenic peptide substrate Z-Phe-Arg-AFC. The activity of control samples as compared with activities in the presence of multiple concentrations of Mu-Tyr(OCH3)2 -HPhe-O-Ph. The concentration at which activity was inhibited by 50% (IC50) was calculated.

[2] = system: 45Ca2+-labelled bones (calvaria) of neonatal mice; experiment: Parathyroid hormone-stimulated 45Ca2+ release from cultured mouse calvaria; assay type: cell-based; conditions: for inhibition of the rate of 45Ca2+-release: 1 μm inhibitor; for inhibition of the rate of 45Ca2+-release / additional inhibition of the rate of 45Ca2+-release: 24 hour period, PTH-stimulated; for additional inhibition of the rate of 45Ca2+-release: 100 μm inhibitor
Experimental: (§1) Treatment of Osteo Arthritis with Mu-Phe-HPhe-O-Ph. ^45 Ca^2+ -labelled bones (calvaria) of neonatal mice were maintained in culture. The effect of the test compound on the rate of parathyroid hormone-stimulated ^45 Ca^2+ release was measured over a 24 hour period. An inhibitor of bone resorption (at maximal concentrations) would be expected to inhibit this rate by approximately 70%. The nature of the residual, uninhibitable ^45 Ca^2+ -release is not known but could represent chemical exchange of ^45 Ca^2+ with the medium. Mu-Phe-HPhe-O-Ph was dissolved in dimethylsulphoxide which was present in the incubation at concentrations <0.1%.
as §1, with “Mu-Leu-HPhe-O-Ph.” for “Mu-Phe-HPhe-O-Ph.”, “Mu-Leu-HPhe-O-Ph” for “Mu-Phe-HPhe-O-Ph”
as §1, with “Mu-Tyr(OMe)-HPhe-O-Ph.” for “Mu-Phe-HPhe-O-Ph.”, “Mu-Tyr(OMe)-HPhe-O-Ph” for “Mu-Phe-HPhe-O-Ph”
as §1, with “Z-Phe-Ala-O-Ph.” for “Mu-Phe-HPhe-O-Ph.”, “Z-Phe-Ala-O-Ph” for “Mu-Phe-HPhe-O-Ph”
as §1, with “Mu-Tyr(OMe)-HPhe-O-Ph.” for “Mu-Phe-HPhe-O-Ph.”, “labelled” for “-labelled”, “Mu-Tyr(OMe)-HPhe-O-Ph” for “Mu-Phe-HPhe-O-Ph”

[3] = target: Soluble extracts of P. falciparum (cysteine proteinase); experiment: Proteolytic activity of P. falciparum soluble extracts, substrate Z-Phe-Arg-AFC; assay type: biochemical; conditions: read-out: IC50, proteolytic activity of P. falciparum extract
Experimental: Soluble extracts of P. falciparum and P. vinckei were prepared and proteolytic activity was assayed with fluorogenic peptide substrate Z-Phe-Arg-AFC. […] The concentrations at which activity was inhibited by 50% (IC50) was calculated.
Soluble extracts of P. falciparum and P. vinckei were prepared and proteolytic activity was assayed with fluorogenic peptide substrate Z-Phe-Arg-AFC. […] The concentration at which activity was inhibited by 50%. (IC50) was calculated.
Soluble extracts of P. falciparum and P. vinckei were prepared and proteolytic activity was assayed with fluorogenic peptide substrate Z-Phe-Arg-AFC. […] The concentration at which activity was inhibited by 50% (IC50) was calculated.

[4] = target: T1, Cathepsin B purified from human liver (Homo sapiens, UniProt P07858); experiment: Cathepsin B inhibition, potency relative to Z-Phe-Ala-CH2 F; assay type: biochemical; conditions: substrate Z-Leu-Arg-Arg-AFC, pH 6.2, inhibitor added 2 min before substrate
T1 construct: Cathepsin B. purified from human liver; purchased Enzyme Systems Products (Dublin, Calif.); host or cells: human liver (tissue-purified)
Experimental: Cathepsin B. purified from human liver, was obtained from Enzyme Systems Products (Dublin, Calif.). The activity of the enzyme used in this Example was 50 mU per ml at 30° C. in 50 mm sodium phosphate buffer, pH 6.2, 5 mm DTT, 2 mm EDTA, with Z-Leu-Arg-Arg-7-amino-4-trifluoromethyl courmarin (Z-Leu-Arg-Arg-AFC) as substrate.
Cathepsin B assays were done under the following conditions: Five μl of enzyme stock solution was preincubated with 435 μl of phosphate buffer for 30 minutes to activate the enzyme. Nine μl of 20 mm stock substrate solution (in dimethylformamide) were added and mixed with the activated enzyme. Activity was followed by the release of free AFC as monitored by a Perkin-Elmer LS-5B spectrofluorometer (excitation=400 nm, emission=505 nm).
The inhibitors described herein were prepared in 20 mm stock solutions in DMF. Five μl aliquots of each inhibitor were added to the enzyme 2 min before the substrate was added to the mix. Potency was determined relative to the activity of a standard cathepsin B inhibitor, Z-Phe-Ala-CH2 F (relative potency of 1.0).

[5] = system: adjuvant-induced arthritis; experiment: Adjuvant-induced arthritis in rats, compound in ground diet (Example 15); assay type: in vivo; conditions: day 0 to day 32
Experimental: Treatment of Rheumatoid Arthritis with Mu-Tyr(OMe)-HPhe-O-Ph. Rats were injected with adjuvant on day 0 and were treated with Mu-Tyr(OMe)-HPhe-O-Ph in ground diet from the time of adjuvant injection until sacrifice at day 32. Over the course of the disease, animals were evaluated in terms of a mean clinical score, a derived series of clinically observed parameters normalized to facilitate graphical presentation. Mean paw volumes were also measured using normalized units throughout the course of the disease. At the end of the study, the animal groups were sacrificed and evaluated by X-ray analysis.

Q: `CC(C)C[C@H](NC(=O)N1CCOCC1)C(=O)N[C@@H](CCc1ccccc1)C(=O)COc1ccccc1` [Mu-Leu-HPhe-O-Ph] was tested. Which “inhibition of bone resorption in vivo as measured by tetracycline excretion” value (bone resorption; subcutaneous once per day for three days, 25 mg/ml in DMSO/PEG, 2 ml/kg) did it give?
A: The value was “nearly as great as that of a maximal dose of calcitonin”.

Q: And the “time of maximum effect after dosing commenced” value (bone resorption; subcutaneous once per day, 25 mg/ml, 2 ml/kg)?
A: Its value is 24 h.

Q: And the “findings at the sites of injection at end of experiment” value (bone resorption; subcutaneous, DMSO/PEG, three days, histology: inflammation of subcutaneous fat, tissue necrosis)?
A: Its value is “lesions were visible at the sites of injection”.

Q: And the IC50 [1]?
A: Its IC50 is 15 nM.

Q: And the “inhibition of the rate of 45Ca2+-release” value [2]?
A: Its value is 50%.

Q: What about the “additional inhibition of the rate of 45Ca2+-release” value (“additional inhibition” below) [2] of the same compound?
A: The value was 20%.

Q: And the IC50 [3]?
A: The IC50 was 0.42 nM.

Q: What does the source list for `NC(=NCCCC(NC(=O)C(Cc1ccccc1)NC(=O)N1CCOCC1)C(=O)COc1ccccc1)N[N+](=O)[O-]` (stereo not shown) [Mu-Phe-Arg(NO2)-O-Ph]?
A: IC50 [1]: 110 nM; IC50 [3]: 2.4 nM

Q: With `C[C@H](NC(=O)[C@H](Cc1ccccc1)NC(=O)OCc1ccccc1)C(=O)CF` [Z-Phe-Ala-CH2 F, reference compound] as the compound, how does the “relative potency of cathepsin B inhibition (Z-Phe-Ala-CH2 F = 1.0)” value [4] read?
A: Its value is 1.0.

Q: `COC(=O)c1ccccc1OCC(=O)C(C)(C)NC(=O)C(Cc1ccccc1)NC(=O)N1CCOCC1` (stereo not shown) [Example 9, Morpholine carbonyl phenylalanyl 2-aminoisobutyric methyl phenoxy ketone] was tested. Which “relative potency of cathepsin B inhibition (Z-Phe-Ala-CH2 F = 1.0)” value [4] did it give?
A: Its value is 0.2.

Q: How did the “relative potency of cathepsin B inhibition (Z-Phe-Ala-CH2 F = 1.0)” value [4] turn out when “t-Butyl carbamyl-L-arginyl-(2-Carboxymethyl) phenoxymethyl ketone [Example 3]” was run?
A: The value was “five”.

Q: `CC(NC(=O)C(Cc1ccccc1)NC(=O)OCc1ccccc1)C(=O)COc1ccccc1` (stereo not drawn) [Z-Phe-Ala-O-Ph] was tested. Which “inhibition of the rate of 45Ca2+-release” value [2] did it give?
A: The value was 50%.

Q: And the “additional inhibition” value [2]?
A: The value was 20%.

Q: For `COc1ccc(C[C@H](NC(=O)N2CCOCC2)C(=O)N[C@@H](CCc2ccccc2)C(=O)COc2ccccc2)cc1` [Mu-Tyr(OMe)-HPhe-O-Ph], which “mean clinical scores vs untreated animals” value [5] is on record?
A: Its value is “significantly lower”.

Q: And the “mean paw volumes vs untreated animals” value [5]?
A: Its value is “significantly reduced”.

Q: And the “inhibition of the rate of 45Ca2+-release” value [2]?
A: Its value is 50%.

Q: What about the “additional inhibition” value [2] of the same compound?
A: Its value is 20%.

Q: What about the IC50 ([2]; initial phase of inhibition, read-out: IC50 for inhibition of resorption in mouse calvaria) of the same compound?
A: Its IC50 is ~40 nM.
